Four compounds from publication PMC7307922 (Journal of Medicinal Chemistry, 2020) can be followed below.

One series deals with T1, hFFA3 (Homo sapiens, UniProt O14843).
T1 sequence (O14843 1-346): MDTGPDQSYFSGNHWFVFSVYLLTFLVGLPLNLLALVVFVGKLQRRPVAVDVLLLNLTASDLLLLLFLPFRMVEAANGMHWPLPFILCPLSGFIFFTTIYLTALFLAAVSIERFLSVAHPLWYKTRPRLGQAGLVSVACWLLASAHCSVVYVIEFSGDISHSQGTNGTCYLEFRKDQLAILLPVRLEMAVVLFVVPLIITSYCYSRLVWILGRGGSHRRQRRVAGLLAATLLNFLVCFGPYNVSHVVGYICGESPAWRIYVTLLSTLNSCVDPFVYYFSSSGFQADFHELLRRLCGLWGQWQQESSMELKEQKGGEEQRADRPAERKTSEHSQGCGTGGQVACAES
Description: cell-based. Particulars: for Emax: HEK293, read-out: cAMP Emax; for cAMP pEC50 / EC50: hFFA3; for cAMP pEC50: compound alone, mean of ≥3 independent experiments ± standard error; for EC50: read-out: EC50 (cAMP assay). The gist of the method:
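HEK293 Flp-In T-REx cells stably carrying FFA3-eYFP, expression induced overnight with doxycycline, 3000 cells/well; compounds co-incubated 1 h to inhibit 0.3 μM forskolin-induced cAMP, read with HTRF cAMP kit.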
A general note: cAMP levels reflect the balance of adenylyl cyclase and phosphodiesterase activity.

Another series is described as follows: in vivo. Particulars: male, BALB/c, mouse. On the procedure: The study was performed by Bienta (www.bienta.net). Study design, animal selection, handling, and treatment were all in accordance with the Enamine PK study protocols and Institutional Animal Care and Use Guidelines. Animal treatment and plasma samples preparation were conducted by the Animal Laboratory personnel at Enamine/Bienta. […] The animals were randomly assigned to the treatment groups before the pharmacokinetic study; all animals were fasted for 4 h before dosing. […] Each of the time point treatment group included four animals. There was also a control group of two animals. […] Dosing volumes of compounds or vehicle was 5 mL/kg. Mice were injected iv with 2,2,2-tribromoethanol at the dose of 150 mg/kg prior to drawing the blood. Blood collection was performed from the orbital sinus in microtainers containing K2EDTA. Animals were sacrificed by cervical dislocation after the blood sample collection. All samples were immediately processed, flash-frozen, and stored at −70 °C until subsequent analysis. […] After mixing by pipetting and centrifuging for 4 min at 6000 rpm, 0.5–1 μL of each supernatant was analyzed by HPLC-MS/MS on an API 3000 PE instrument.

For a further series, the target named is T2, human FFA2 (Homo sapiens, UniProt O15552).
T2 construct: expressed in transfected cells; host or cells: Flp-In T-REx 293, doxycycline-induced
T2 sequence (O15552 1-330): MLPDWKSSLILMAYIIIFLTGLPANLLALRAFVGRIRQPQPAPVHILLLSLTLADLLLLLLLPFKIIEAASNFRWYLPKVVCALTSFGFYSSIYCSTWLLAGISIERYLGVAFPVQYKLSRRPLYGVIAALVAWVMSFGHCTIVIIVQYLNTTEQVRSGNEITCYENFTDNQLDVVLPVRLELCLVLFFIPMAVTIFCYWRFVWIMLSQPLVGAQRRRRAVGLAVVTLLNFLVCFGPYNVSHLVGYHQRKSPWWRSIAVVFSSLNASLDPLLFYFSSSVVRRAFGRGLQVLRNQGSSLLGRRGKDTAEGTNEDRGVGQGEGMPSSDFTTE
Description: FFA2 counterscreen, cAMP assay. It counts as cell-based. Particulars: 10 μM. As to the method:
Counter screening against FFA1, FFA2 , FF A4 and GPR84 […]
Counter screening for FFA2 was carried out using a cAMP assay. Flp-In T-Re x 293 cells generated to stably express human FFA2 tagged at is C-terminal with eYFP were first treated with doxycycline (100 ng/mL) overnight to induce receptor expressi on. Cells were then detached and used directly in an HT R-FRET cAMP assay (CisBio) according to the manufacturer’s protocol and measured using a Pherastar FS plate reader (BMG Labtech, Aylesbury, UK). For these experiments, 2000 cells were used per well in a low volume 384-well plate and compounds were tested against their ability to inhibit the cAMP response to 1 µM forskolin for 30 min. […]
(Counterscreens check selectivity or assay interference.)

For another series, the target named is T3, mFFA3 (Mus musculus, UniProt Q3UFD7).
T3 sequence (Q3UFD7 1-319): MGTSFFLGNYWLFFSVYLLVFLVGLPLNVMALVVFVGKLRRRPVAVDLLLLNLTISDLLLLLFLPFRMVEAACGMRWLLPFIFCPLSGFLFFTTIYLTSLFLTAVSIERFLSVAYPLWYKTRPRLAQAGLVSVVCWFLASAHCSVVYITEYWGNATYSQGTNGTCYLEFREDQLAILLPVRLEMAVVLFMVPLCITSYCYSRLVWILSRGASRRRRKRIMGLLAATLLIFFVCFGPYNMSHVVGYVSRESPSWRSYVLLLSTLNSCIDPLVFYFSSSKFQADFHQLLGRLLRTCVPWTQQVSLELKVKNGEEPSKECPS
As to the kind of experiment: cAMP assay, mFFA3. Type of series: cell-based. The arrangement: expressed in transfected cells; host or cells: HEK293 Flp-In T-REx, doxycycline-induced. Particulars: for loss of potency from human to rodent species: hFFA3 vs rFFA3 and mFFA3, cAMP. As to the method:
With several compounds with improved properties in hand, we wished to investigate the suitability of the compounds as tools for in vivo studies in rodents. Because of the moderate potency and low solubility associated with this series, it has been presumed that they are poorly suited as in vivo tools.
HEK293 Flp-In T-Rex cells stably transfected with FFA3-eYFP receptors were incubated overnight with doxycycline to induce expression, then harvested, and cryopreserved. On the day of each experiment, cells were thawed and resuspended in stimulation buffer. Assays were carried out using a 384-well plate format with 3000 cells/well using the CisBio cAMP GS dynamic kit as per manufacturer’s protocol. Compounds were tested for the ability to inhibit 0.3 μM forskolin-induced cAMP production after co-incubation for 1 h. Reactions were measured using a PHERAstar FS plate reader (BMGLabtech, Aylesbury, UK).

By Emax is commonly meant the size of the effect at its maximum, as opposed to the concentration needed. As usually defined, the Vd is a proportionality between amount in the body and measured concentration, not a real space. A higher Vd goes with extensive tissue distribution. Usually clearance stands for the rate of elimination divided by the concentration. Read a high clearance as a high capacity for elimination. What is called half-life is the time needed for the level to fall by half in the phase considered. By AUC(0-inf) is commonly meant the area under the concentration-time curve extrapolated to infinity. As a reminder, the Cmax is the maximum level reached in the sampled fluid or tissue. Usually Tmax stands for the time at which the peak concentration occurs. For orientation: bioavailability means the share of a dose that reaches the circulation, judged against a reference dose that is usually intravenous. A low value points to little systemic uptake. Turning to `CC1=C(C(=O)Nc2ccccc2C)C(c2ccco2)C2=C(CCCC2=O)N1` (stereo not drawn) [Compound 1, 4-(Furan-2-yl)-2-methyl-5-oxo-N-(o-tolyl)-1,4,5,6,7,8-hexahydroquinoline-3-carboxamide, reference compound], at hFFA3, the maximal response (Emax) was 105% and the “cAMP pEC50” value was determined as 6.28 ± 0.06. In addition, the “PAM pEC50” value on hFFA3 (cAMP assay in the presence of 1 μM propionate) is 6.27 ± 0.15. In “in vivo” (iv, 5 mg/kg), this compound registered a Vd at 24 h of 0.759 L/kg, a clearance at 24 h of 8.45 mL/min/kg and a half-life at 24 h of 62.2 min. In the series “in vivo” (po, 10 mg/kg), the area under the curve AUC(0-inf) at 24 h was 14400 ng·h/mL, the highest level (Cmax at 24 h) was 7470 ng/mL, the time of peak concentration (Tmax) at 24 h was 15 min and the bioavailability at 24 h was 73%. The same compound returned a half-life at 24 h in “in vivo” (po, 10 mg/kg) of 89.7 min. Also, at human FFA2, the “activity at FFA2” value was “No significant activity”. Further, on mFFA3, the “loss of potency from human to rodent species” value was 3–10 fold and the “cAMP pEC50 (mFFA3)” value stood at 5.42 ± 0.04.
By EC50 is commonly meant the concentration needed to bring the measured effect to its halfway point. Turning to `CC1=C(C(=O)Nc2cc(Cl)ccc2Cl)C(C2CCCC2)C2=C(CCCC2=O)N1` (stereo not drawn) [Compound 63, 4-Cyclopentyl-N-(2,5-dichlorophenyl)-2-methyl-5-oxo-1,4,5,6,7,8-hexahydroquinoline-3-carboxamide], at hFFA3, the maximal effect (Emax) was 99%, the “cAMP pEC50” value turned out to be 6.79 ± 0.05 and the EC50 was determined as 162 nM. Also, the “allosteric effect on propionate response” value on hFFA3 (cAMP assay together with propionate (56: 30 μM compound; 62, 63: 1 μM propionate)) was “did not reveal significant PAM effects”. In addition, in the series “in vivo” (iv, 5 mg/kg), the Vd at 24 h stood at 1.11 L/kg, the clearance at 24 h turned out to be 20.3 mL/min/kg and the half-life at 24 h amounted to 37.8 min. Besides, in the series “in vivo” (po, 10 mg/kg), the total exposure AUC(0-inf) at 24 h is 5420 ng·h/mL, the concentration peaked (Cmax at 24 h) at 3800 ng/mL, the Tmax at 24 h is 15 min and the bioavailability at 24 h is 66%. In the series “in vivo” (po, 10 mg/kg), this compound yielded a half-life at 24 h of 51.8 min. Also, the “activity at FFA2” value on human FFA2 is recorded as “No significant activity”. Besides, on mFFA3, the “cAMP pEC50 (mFFA3)” value is 5.96 ± 0.04.
On to `CCCC1C(C(=O)Nc2cc(Cl)ccc2Cl)=C(C)NC2=C1C(=O)CCC2` (stereo not drawn) [Compound 57, N-(2,5-Dichlorophenyl)-2-methyl-5-oxo-4-propyl-1,4,5,6,7,8-hexahydroquinoline-3-carboxamide], for which, on hFFA3, the Emax was 113%, the “cAMP pEC50” value is recorded as 6.84 ± 0.02 and the EC50 is 145 nM. In the series “in vivo” (iv, 5 mg/kg), this compound gave a distribution volume (Vd) at 24 h of 1.15 L/kg, a clearance at 24 h of 70.3 mL/min/kg and a half-life at 24 h of 11.4 min. For the same compound, in “in vivo” (po, 10 mg/kg), the AUC(0-inf) at 24 h was 563 ng·h/mL, the peak concentration (Cmax) at 24 h is 561 ng/mL, the Tmax at 24 h is 30 min and the bioavailability at 24 h came to 36%. Moreover, the half-life at 24 h in “in vivo” (po, 10 mg/kg) turned out to be 63.5 min. In addition, the “activity at FFA2” value on human FFA2 is given as “No significant activity”.
For `CC1=C(C(=O)Nc2cc(Cl)ccc2Cl)C(c2ccco2)C2=C(CCCC2=O)N1` (stereo not drawn) [Compound 16, reference compound], at hFFA3, the Emax was 106% and the “cAMP pEC50” value is 6.89 ± 0.02. In “in vivo” (iv, 5 mg/kg), the Vd at 24 h was found to be 0.629 L/kg, the clearance at 24 h was determined as 19.6 mL/min/kg, the half-life came out at 20 min and the half-life at 24 h came to 22.3 min. In the series “in vivo” (po, 10 mg/kg), the total exposure AUC(0-inf) at 24 h is 7050 ng·h/mL, the Cmax at 24 h came out at 5740 ng/mL, the time of peak concentration (Tmax) at 24 h was 30 min and the bioavailability at 24 h turned out to be 88%. In the series “in vivo” (po, 10 mg/kg), this compound showed a half-life at 24 h of 60.8 min. For the same compound, at human FFA2, the “activity at FFA2” value was “No significant activity”. Also, on mFFA3, the “loss of potency from human to rodent species” value is recorded as 3–10 fold and the “cAMP pEC50 (mFFA3)” value is reported as 5.88 ± 0.05.
